Experimental data from patent publication US9115145B2, “Tocotrienol derivatives and associated methods” (FIRST TECH INTERNATIONAL LIMITED, priority 2011, dated 2015).
Like-named read-outs stand apart in the source and are kept apart here.

Columns and labels:
[1] = test system: +SA mammary tumor; test: +SA tumor implantation into mammary fat pads of syngeneic BALB/c mice; type: in vivo
From the text: The malignant +SA mammary epithelial cell line was derived from an adenocarcinoma that developed spontaneously in a female BALB/c mouse. These cells can be grown on plastic in culture and display the ability to grow in soft agarose. Re-implantation of +SA mammary tumor cells back into the mammary fat pad of syngeneic mice results in the rapid development and growth of metastatic tumors. Prior to experimentation, +SA cells were serially passaged at subconfluent cell density. For subculturing, cells are rinsed with calcium/magnesium-free phosphate buffered saline (PBS) and incubated in 0.05% trypsin containing 0.025% EDTA in PBS for 5 min at 37° C. […] Cell pellets are then resuspended in control culture media, counted by hemocytometer, and then plated at the desired density in culture plates. […] On the day of tumour implantation, +SA cells grown in culture are isolated with trypsin, washed, counted and diluted to the desired concentration in fresh culture medium. […] Tumor size and body weighs were recorded every other day. Average tumor diameter for each palpable tumor was determined using the mean of the 2 largest perpendicular diameters as measured with vernier calipers. Tumor volume was determined using the equation: Volume=Length (cm)×Width^2 (cm)/2 or V=L×W^2/2 […]

[2] = test system: MCF 10A non-tumorigenic mammary epithelial cells; test: MTT assay of MCF10A cells; type: cell-based, human
How it was run: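 MCF 10A non-tumorigenic human mammary epithelial cells were seeded at 10×10^4 cells/well and treated with compounds in serum-free medium, final DMSO below 0.1%. Viability was read by MTT, and IC50 came from non-linear regression. Selectivity index = MCF 10A IC50 ÷ +SA cell line IC50.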

[3] = test system: MDA-MB-231 human breast cancer cells; test: Wound-healing assay (cell migration); type: cell-based; conditions: MDA-MB-231, wound-healing assay, dose response; read-out: IC50 antimigratory activity
How it was run: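 Scratch wounds made in confluent (>95%) monolayers, then compounds added in fresh medium (5 μM in screening; concentration range in follow-up), DMSO as negative control, triplicate. After 24 h serum-starved at 37 °C, cells fixed and Diff-Quick stained. Migrated cells counted per 400× field (≥3 fields); IC50 from concentration range.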

Structure (SMILES)	body weights ([1]; 0.5 mg/day intravenous, 14-day treatment period)	+SA mammary tumor growth ([1]; 0.5 mg/day, tail vein injection, 14 day, vs vehicle-treated control)	IC50 ([2]; MCF10A cells, Table II, non-linear regression, read-out: MCF10A (IC50))	IC50 ([2]; MCF 10A non-tumorigenic cells, Table I, read-out: IC50 MCF 10A)	IC50 [3]
COc1ccc(CCNCc2c(O)c(C)c(C)c3c2CC[C@@](C)(CC/C=C(\C)CC/C=C(\C)CCC=C(C)C)O3)cc1OC [Compound 30, (R)-5-((3,4-dimethoxyphenethylamino)methyl)-2,7,8-trimethyl-2-((3E,7E)-4,8,12-trimethyltrideca-3,7,11-trienyl)chroman-6-ol]	did not significantly differ	grew at a significantly slower rate	–	–	–
CC(C)=CCC/C(C)=C/CC/C(C)=C/CC[C@]1(C)CCc2cc(O)c(C)c(C)c2O1 [Compound 1, γ-tocotrienol, reference compound]	–	–	4.4 µM	4.4 µM	> 40 µM
